Measured values from patent publication US11241448B2, “Methods for cancer therapy” (Millennium Pharmaceuticals, Inc., priority 2014, dated 2022).
Structures can show the parent of a compound that is named as a salt.

Assays:
[1] = upon contact with either plasma or aqueous solutions; cited from earlier work
[2] = system: patients with relapsed, refractory multiple myeloma; assay: Exposure-response logistic regression analyses, phase 1 study of weekly single-agent ixazomib; assay type: in vivo, human; conditions: starting dose 3.0 mg weekly
Excerpt: The methods and results of these analyses are described below.
The metric of exposure (Ex) was AUC per day (derived from individual clearance values using population pharmacokinetics) for both exposure logistic regression analyses Ex/S and Ex/E. Ex/S analysis was done on seven adverse events (AEs): non-hematologic (non-H) (fatigue, rash, peripheral neuropathy, diarrhea) and hematologic (H) (anemia, thrombocytopenia, neutropenia). The non-hematologic adverse events data were categorized into grade≥2 vs. grade≤1 groups while hematologic adverse events data were grouped into grade≥3 vs. grade≤2. The data were categorized in this way as maintenance treatment should have a tolerable adverse events profile and contribute to acceptable quality of life. Different cut-offs were used for hematologic and non-hematologic adverse events because grade 3 hematologic adverse events may have less impact on quality of life and be more manageable than grade 2 non-hematologic adverse events such as diarrhea. For exposure efficacy (Ex/E), data were categorized as: ≥stable disease (SD) vs. progressive disease (PD). Clinical benefit rate including SD achieved in relapsed or refractory patients may be a meaningful predictor of expected response in a maintenance setting. The logistic regression analyses were done using SPLUS software version 8.1.

[3] = system: multiple myeloma patients who completed induction therapy; assay: Clinical study of oral single-agent ixazomib maintenance therapy; assay type: in vivo, human
Excerpt: These patients completed induction therapy and progressed to the maintenance phase.

[4] = molecular target: β1 site of the 20S proteasome (Homo sapiens, UniProt P28072); conditions: at higher concentrations; cited from earlier work
[5] = molecular target: β2 site of the 20S proteasome (Homo sapiens, UniProt Q99436); conditions: at higher concentrations; cited from earlier work
[6] = system: kinases; conditions: read-out: IC50 values against kinases; cited from earlier work
[7] = molecular target: receptors; conditions: read-out: IC50 values against receptors; cited from earlier work
[8] = molecular target: β5 proteasome (Homo sapiens, UniProt P28074); conditions: in contrast to bortezomib; cited from earlier work
[9] = system: tumor xenografts; conditions: in contrast to bortezomib; cited from earlier work
[10] = in contrast to bortezomib; cited from earlier work
[11] = system: patients with advanced solid tumors, lymphoma, RRMM, and relapsed or refractory AL amyloidosis; conditions: cited from earlier work
[12] = of 10 patients who improved during maintenance

Question: With `CC(C)C[C@H](NC(=O)CNC(=O)c1cc(Cl)ccc1Cl)B1OC(=O)C(CC(=O)O)(CC(=O)O)O1` [ixazomib citrate] as the compound, how does the hydrolysis to ixazomib [1] read?
Answer: rapidly hydrolyzes

Question: Which results are given for `CC(C)C[C@H](NC(=O)CNC(=O)c1cc(Cl)ccc1Cl)B(O)O` [ixazomib]?
Answer: model-predicted clinical benefit rate (≥SD) [2]: ~33%; model-predicted incidence of grade≥2 diarrhea [2]: 19%; model-predicted incidence of grade≥2 fatigue [2]: 19%; model-predicted incidence of grade≥2 rash [2]: 16%; model-predicted incidence of grade≥3 neutropenia [2]: 10%; model-predicted incidence of grade≥3 thrombocytopenia [2]: 22%; survival of patients who received maintenance ([3]; after follow-up of 25.1-33.9 months): alive; best overall response: complete response (CR) or better, percent of patients ([3]; n=21, maintenance therapy): 52%; best overall response: very good partial response (VGPR) or better, percent of patients ([3]; n=21, maintenance therapy): 71%; median duration of response ([3]; n=21, range 6.7-31.18): 21.65 months; improved response CR to sCR, patients [3, 12]: 2/10; improved response VGPR to CR, patients [3, 12]: 5/10; improved response VGPR to near-CR (nCR), patients [3, 12]: 2/10; improved response VGPR to stringent complete response (sCR), patients [3, 12]: 1/10; median time to first response (≥rapid response “PR”) ([3]; range 0.92-5.78): 0.99 months; median time to best response ([3]; range 1.02-24.74): 7.46 months; inhibition of activity of the β1 site [4]: also inhibits the activity; inhibition of activity of the β2 site [5]: also inhibits the activity; IC50 [6]: > 10 µM; IC50 [7]: > 10 µM; dissociation rate from the proteasome [8]: faster dissociation rate; antitumor activity in tumor xenografts [9]: antitumor activity in a broader range of tumor xenografts; tissue penetration [10]: more prolonged tissue penetration; clinical activity ([11]; advanced solid tumors, lymphoma, RRMM, AL amyloidosis): early signs of activity; emerging safety profile / tolerability ([11]; clinical studies): generally well tolerated; toxicity profile ([11]; clinical studies): favorable toxicity profile with low rates of peripheral neuropathy
